According to patent publication EP1235797B1, “ARALKYL-1,2-DIAMINES HAVING CALCIMIMETIC ACTIVITY AND PREPARATION MODE” (CENTRE NATIONAL DE LA RECHERCHE SCIENTIFIQUE (CNRS), priority 1999, dated 2001):

How the values were obtained:
CaSR de rat = molecular target: T1, CaSR de rat (Rattus norvegicus, UniProt P48442); assay: Accumulation of tritiated inositol phosphates ([3H]IP) in transfected CHO(CaSR) cells; format: cell-based; conditions: compound 10 µM; for activation at 10 µM: read-out: Accumulation d'(^3H)-IP % de la réponse 10mM Ca^2+ ± E.S.; for Accumulation d'(^3H)-IP % du taux basal. CHO (CaSR) / activity at 10 µM: basal level in presence of 2 mM Ca^2+ = 100 %; for activity at 10 µM: read-out: Accumulation d'(^3H)-IP % du taux basal. CHO (CaSR)
T1 construct: expressed in transfected cells; host or cells: CHO (Chinese hamster ovary) cells, line CHO(CaSR)
T1 sequence (P48442 20-1079): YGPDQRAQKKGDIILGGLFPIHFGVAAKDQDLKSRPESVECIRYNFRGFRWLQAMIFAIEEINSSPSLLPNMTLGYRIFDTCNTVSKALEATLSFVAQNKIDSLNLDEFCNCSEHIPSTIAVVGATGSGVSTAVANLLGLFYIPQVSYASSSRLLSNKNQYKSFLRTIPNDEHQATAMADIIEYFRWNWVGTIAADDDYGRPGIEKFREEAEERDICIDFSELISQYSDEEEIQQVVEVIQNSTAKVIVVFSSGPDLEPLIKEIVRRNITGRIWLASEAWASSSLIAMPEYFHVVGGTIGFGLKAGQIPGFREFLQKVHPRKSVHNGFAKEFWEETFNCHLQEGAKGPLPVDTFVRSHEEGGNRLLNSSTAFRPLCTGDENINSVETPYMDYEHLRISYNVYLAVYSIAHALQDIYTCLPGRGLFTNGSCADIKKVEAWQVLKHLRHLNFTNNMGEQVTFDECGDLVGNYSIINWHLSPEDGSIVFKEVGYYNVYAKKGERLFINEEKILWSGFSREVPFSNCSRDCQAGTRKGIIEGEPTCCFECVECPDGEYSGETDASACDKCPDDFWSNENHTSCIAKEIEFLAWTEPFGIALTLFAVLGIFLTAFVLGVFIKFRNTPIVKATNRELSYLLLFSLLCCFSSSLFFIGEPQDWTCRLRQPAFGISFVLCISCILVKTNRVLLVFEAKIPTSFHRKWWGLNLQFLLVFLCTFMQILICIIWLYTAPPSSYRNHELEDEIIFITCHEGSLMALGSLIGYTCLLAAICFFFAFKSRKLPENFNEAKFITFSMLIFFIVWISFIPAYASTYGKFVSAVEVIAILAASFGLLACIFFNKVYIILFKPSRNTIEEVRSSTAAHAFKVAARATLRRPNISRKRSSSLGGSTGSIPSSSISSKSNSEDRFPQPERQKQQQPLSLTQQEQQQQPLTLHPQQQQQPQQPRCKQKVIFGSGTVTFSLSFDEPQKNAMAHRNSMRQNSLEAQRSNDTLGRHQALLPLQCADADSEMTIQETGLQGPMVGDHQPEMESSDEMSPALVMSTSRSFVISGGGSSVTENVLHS
Excerpt: L'ADN complémentaire codant pour le CaSR de rat a été isolé à partir d'une banque ADNc de striatum de rat (Ruat et al, Proc. Natl. Acad. Sci., 1995). Ce récepteur est identique au niveau de sa séquence en acides aminés à celui exprimé dans les autres tissus. Des cellules ovariennes de hamster chinois (CHO) transfectées exprimant le CaSR de rat (CHO(CaSR)) ont été caractérisées et les signaux chimiques (seconds messagers) induits par l'activation de ce récepteur ont été analysés. Ainsi, un test biochimique permettant de mesurer l'accumulation d'inositols phosphates tritiés [^3H]IP en réponse à l'activation du récepteur a été mis au point (Ruat et al, J. Biol. Chem., 1996; Ferry et al, Biochem. Biophys. Res. Commun., 1997).
L'activité calcimimétique des composés a été estimée en mesurant l'accumulation d'inositols phosphates tritiés induite par 10 µM de chacun des composés en présence de 2 mM de Ca^2+ dans les cellules CHO(CaSR) (Ferry et al, Biochem Biophys Res Commun, 1997).
Cette activation a été comparée à celle induite par le composé NPS-R- 568, un calcimimétique de référence et utilisé à une concentration de 10 µM (Tableau 1) (Ferry et al, Biochem Biophys Res Commun, 1997; Nemeth et al, Proc Natl Acad Sci USA, 1997).
Dans le tableau 1, l'activité calcimimétique des composés PHD est comparée à celle d'un composé de référence, le NPS-R-568 utilisé à la même concentration et dans les mêmes conditions expérimentales. Cette activité est exprimée en pourcentage de l'activité de 10 mM de Ca^2+. Les moyennes ± erreurs standards de 2 à 5 manipulations indépendantes sont indiquées. Les expériences ont été réalisées en présence de 2 mM de Ca^2+.
(§1) L'accumulation d'inositols phosphates tritiés est exprimée en pourcentage du taux de base observé en présence de 2 mM Ca^2+ (100 %) dans les cellules CHO(WT*) ou CHO(CaSR).

cellules CHO(WT*) = assay: Specificity control: [3H]IP accumulation in CHO(WT*) control cells transfected with the plasmid alone, not expressing CaSR; format: cell-based, hamster chinois; conditions: compound 10 µM, basal level in presence of 2 mM Ca^2+ = 100 %; for activity at 10 µM: read-out: Accumulation d'(^3H)-IP % du taux basal. CHO (WT*)
Procedure: Les molécules PHD, utilisées à une concentration de 10 µM ne conduisent pas ou peu à l'accumulation d'[^3H]IP dans des cellules CHO(WT*) témoins ce qui suggère leur spécificité d'action vis-à-vis du CaSR (Tableau 2). Les cellules CHO(WT*) ont été tranfectées avec le plasmide seul et n'expriment pas le CaSR.
as §1

[1] = in presence of 2 mM Ca^2+, mean ± standard error of 2 to 5 independent experiments

Compound `CC(NCC(Cc1ccccc1)NS(=O)(=O)c1ccccc1)c1cccc2ccccc12` (stereo not drawn) [PHD 202] has an activation at 10 µM (CaSR de rat; [1]) of 78 ± 10%.
In the case of `COc1ccc(S(=O)(=O)NCCNC(C)c2cccc3ccccc23)cc1` (stereo not drawn) [PHD 288], the activation at 10 µM (CaSR de rat; [1]) is reported as 45 ± 3%.
Compound `COc1ccc(S(=O)(=O)NC(CNC(C)c2cccc3ccccc23)Cc2ccccc2)cc1` (stereo not drawn) [PHD 206] has an activation at 10 µM (CaSR de rat; [1]) of 80 ± 12%.
Compound `CC(NCC(Cc1ccccc1)NCc1ccccc1)c1cccc2ccccc12` (stereo not drawn) [PHD 285] has an activation at 10 µM (CaSR de rat; [1]) of 80 ± 8%.
In the case of `CC(NCC(Cc1ccccc1)NS(=O)(=O)c1ccc(N)cc1)c1ccccc1` (stereo not drawn) [PHD 125], the activation at 10 µM (CaSR de rat; [1]) is reported as 2 ± 4%.
In the case of `CC(NCC(Cc1ccccc1)NS(=O)(=O)c1cccc2ccccc12)c1cccc2ccccc12` (stereo not drawn) [PHD 319], the activation at 10 µM (CaSR de rat; [1]) is reported as 31 ± 7%.
With `C[C@@H](NCC(Cc1ccccc1)NS(=O)(=O)c1ccc([N+](=O)[O-])cc1)c1ccccc1` (single isomer, unassigned) [PHD 127 B] the “Accumulation d'(^3H)-IP % de la réponse 10mM Ca^2+ ± E.S.” value (CaSR de rat; [1]) was 13 ± 3%.
`CC(NCC(Cc1ccccc1)NS(=O)(=O)c1ccccc1Cl)c1cccc2ccccc12` (stereo not drawn) [PHD 301] was tested, and the “Accumulation d'(^3H)-IP % du taux basal. CHO (CaSR)” value (CaSR de rat) was “une forte accumulation”, the activity at 10 µM (CaSR de rat) was 304 ± 18% and the activation at 10 µM (CaSR de rat; [1]) was 79 ± 10%. For the same compound, the “Accumulation d'(^3H)-IP % du taux basal. CHO (WT*)” value (cellules CHO(WT*)) was “peu ou pas d'accumulation” and the activity at 10 µM (cellules CHO(WT*)) was 119 ± 6%.
`Cc1ccc(S(=O)(=O)NC(CNC(C)c2cccc3ccccc23)c2ccccc2)cc1` (stereo not drawn) [PHD 176 B] showed an activation at 10 µM (CaSR de rat; [1]) of 31 ± 3%.
`CC(NCC(Cc1ccccc1)NS(=O)(=O)c1cccc(Cl)c1)c1cccc2ccccc12` (stereo not drawn) [PHD 308] was tested, and the “Accumulation d'(^3H)-IP % du taux basal. CHO (CaSR)” value (CaSR de rat) was “une forte accumulation”, the activity at 10 µM (CaSR de rat) was 314 ± 13% and the activation at 10 µM (CaSR de rat; [1]) was 83 ± 4%. The “Accumulation d'(^3H)-IP % du taux basal. CHO (WT*)” value (cellules CHO(WT*)) was “peu ou pas d'accumulation” and the activity at 10 µM (cellules CHO(WT*)) was 124 ± 9%.
`CC(NCC(Cc1ccccc1)NCc1cccc(Cl)c1)c1cccc2ccccc12` (stereo not drawn) [PHD 312] was tested, and the “Accumulation d'(^3H)-IP % du taux basal. CHO (CaSR)” value (CaSR de rat) was “une forte accumulation”, the activity at 10 µM (CaSR de rat) was 383 ± 39% and the activation at 10 µM (CaSR de rat; [1]) was 78 ± 6%. The “Accumulation d'(^3H)-IP % du taux basal. CHO (WT*)” value (cellules CHO(WT*)) was “peu ou pas d'accumulation” and the activity at 10 µM (cellules CHO(WT*)) was 121 ± 6%.
`C[C@@H](NCC(Cc1ccccc1)NS(=O)(=O)c1ccc([N+](=O)[O-])cc1)c1ccccc1` (single isomer, unassigned) [PHD 127 A] gave an activation at 10 µM (CaSR de rat; [1]) of 12 ± 5%.
`CC(NCC(Cc1ccccc1)NS(=O)(=O)c1ccc([N+](=O)[O-])cc1)c1cccc2ccccc12` (stereo not drawn) [PHD 124] showed an activation at 10 µM (CaSR de rat; [1]) of 27 ± 11%.
`COc1cccc([C@@H](C)NCC(Cc2ccccc2)NS(=O)(=O)c2ccc(C)cc2)c1` (stereo partly drawn) [PHD 182] was tested, and the activation at 10 µM (CaSR de rat; [1]) was 36 ± 12%.
`CC(NCC(Cc1ccccc1)NCc1ccc(F)cc1)c1cccc2ccccc12` (stereo not drawn) [PHD 320] gave an activation at 10 µM (CaSR de rat; [1]) of 95 ± 4%.
With `CC(NCC(N)Cc1ccccc1)c1ccccc1` (stereo not drawn) [PHD 90] the activation at 10 µM (CaSR de rat; [1]) was 3 ± 2%.
`COc1ccc(CC(CNC(C)c2cccc3ccccc23)NS(=O)(=O)c2ccc(OC)cc2)cc1` (stereo not drawn) [PHD 267] gave an activation at 10 µM (CaSR de rat; [1]) of 45 ± 1%.
`COc1ccc(S(=O)(=O)NC(CN[C@H](C)c2cccc(OC)c2)Cc2ccccc2)cc1` (stereo partly drawn) [PHD 217] gave an activation at 10 µM (CaSR de rat; [1]) of 34 ± 5%.
In the case of `COc1ccc(S(=O)(=O)NC(C)CNC(C)c2cccc3ccccc23)cc1` (stereo not drawn) [PHD 280], the activation at 10 µM (CaSR de rat; [1]) is reported as 30 ± 2%.
For `COc1ccc(S(=O)(=O)NC(CNC(C)c2cccc3ccccc23)Cc2ccccc2)cc1OC` (stereo not drawn) [PHD 321, N^2(3,4-diméthoxybenzènesulfonyl)-N^1[1-(1-naphtyl)éthyl]-3-phénylpropane-1,2-diamine], the “Accumulation d'(^3H)-IP % du taux basal. CHO (CaSR)” value (CaSR de rat) was “une forte accumulation”, the activity at 10 µM (CaSR de rat) was 446 ± 22% and the activation at 10 µM (CaSR de rat; [1]) was 97 ± 13%. For the same compound, the “Accumulation d'(^3H)-IP % du taux basal. CHO (WT*)” value (cellules CHO(WT*)) was “peu ou pas d'accumulation” and the activity at 10 µM (cellules CHO(WT*)) was 124 ± 4%.
